The source of these data is patent publication US20250332139A1, “PS[…] AND THEIR USE FOR TREATING […] AND NE[…] DISORDERS” (Transcend Therapeutics, Inc., priority 2021, published 2025).

Each structure is given as a SMILES string.

One data set deals with participants with PTSD. The data set can be described thus: IMPACT-1 open-label study (Part A). In kind it is in vivo, human. On the set-up: reduction in Anxiety Sub-Scale of MADRS: concentration or dose not given beside the values. The procedure: The purpose of this pilot study is to evaluate the safety, tolerability, and efficacy of methylone in adult participants with PTSD. The study is conducted in two parts. Part A is open-label enrolling up to 15 evaluable participants with PTSD. After completion of Part A, enrollment will begin for Part B, which is double-blind, placebo-controlled and enrolling up to 64 evaluable participants with PTSD.
Brief Summary: This is a two-part study to assess methylone for the management of the symptoms of PTSD. Part A is an open-label, non-controlled assessment in up to 15 evaluable participants with PTSD to assess early safety and efficacy and to confirm procedures included in the blinded portion (Part B) of the study. After completion of Part A, enrollment for Part B will begin in up to 64 participants. Part B is identical to Part A with the exception of the inclusion of a placebo arm in Part B.
For each participant in Parts A and B, the study consists of: • Screening Period (Day-28 to Day-4): Informed consent, eligibility assessment, and enrolment of eligible participants. • Baseline/Preparatory Session (Day-3 to Day-1): Baseline assessments, confirmation of eligibility, and a preparatory psychoeducation session leading to enrolment confirmation. • Treatment Period (Day 1 to Day 24): Four weekly dose sessions, with associated remote sessions. The dose sessions last at least 8 hours, or until all effects (physical and psychological) have resolved (whichever is longer). Each dose session is followed by a safety phone call 1 day after dosing and efficacy assessments 2 days after dosing. Each dosing period is video recorded for quality and training purposes. The videos may be reviewed to ensure the Mentor is adhering to the Mentor training. • Follow-Up Period (Day 29 to Day 64): Follow-Up visits for safety and efficacy occur at 1, 2, 3 and 6 weeks post-final study drug administration. In addition, there are Mentor-Led Reflection Sessions 1, 2 and 3 weeks post-final study drug administration. Participants are contacted via telephone on Day 57 (±2 days) for Follow-Up. • Discontinuations: Participants who discontinue prematurely are asked to return for an extra visit to duplicate the 6-week end-of-study (EOS) visit.
Each dose was given as an initial dose, followed by a second dose 90 minutes later. During the dosing session, participants were accompanied by a trained Mentor who provided non-directive support. After the 4-week treatment period, participants attended follow-up visits at 1, 2, 3, and 6 weeks following the last dose. Safety was assessed via standard measures including adverse events. PTSD symptoms were assessed via Clinician-Administered PTSD Scale for DSM-5 (CAPS-5), depressive symptoms were assessed via Montgomery-Åsberg Depression Rating Scale (MADRS). Anti-anxiety efficacy was evaluated using the Anxiety Sub-Scale of MADRS, namely, questions (Items 3, 4, 5, 6) that address four anxiety items (inner tension, reduced sleep, reduced appetite, concentration difficulties) Changes from baseline were analyzed using a paired t-test p-values.
Methods: The IMPACT-1 study is a multi-center, two-part clinical trial. Part A has completed and was an open-label evaluation involving 14 participants with PTSD. Eligible participants are adults with severe PTSD (CAPS-5 ≥35) who had failed at least 1 prior treatment (pharmacotherapy and/or psychotherapy) for PTSD. […] Throughout each dosing session, participants were provided non-directive psychological support by a trained mental health practitioner. Following the 4-week treatment period, participants were followed for an additional 6 weeks to evaluate the durability of the therapeutic effect. PTSD symptom improvement was evaluated on the CAPS-5. Functioning was assessed via the 3 domains (school/work, family life, social life) of the Sheehan Disability Scale (SDS). Global improvement was measured by the CGI-I. Safety was assessed by monitoring adverse events, vital signs, and C-SSRS. […]

A further data set has as its system C57BL/6J mice. The data set can be described thus: Fear extinction paradigm (PTSD mouse model). The class given is in vivo. An excerpt:
Effective PTSD treatments facilitate the disassociation between a traumatic memory and the patient's fear response, making cues for the traumatic memory evoke less of a fear response. This is modeled in the mouse fear extinction paradigm (see FIG. 9A) which takes place over 3 days. On day 1 (fear conditioning), mice are trained to acquire a “traumatic memory,” namely associating the conditioned stimulus (CS, tone) to the unconditioned stimulus (US, foot shock). On day 2 (extinction training), they are trained to forget the traumatic memory association by presenting the CS 6 times (with no US) in a novel environment. On day 3 (extinction recall), the mice are “asked” if that tone (CS) still elicits a fearful response, as measured by the time spent freezing when the tone is presented. Less time freezing means better extinction recall. Drugs that improve extinction recall reduce freezing time on day 3, and, therefore, show potential as a PTSD treatment.
Methods: Cued fear conditioning was performed in C57BL/6J mice. On day 1, animals were placed in the chambers and presented with a training session (CS-US pairing). The training consisted of a 2-minute habituation followed by a 30-second, 80 dB tone; during the last 2 seconds of the tone animals received a 1 mA foot shock. This US-CS procedure occurred once for a total of one paired presentation of tone and shock. Freezing behavior (immobility) was recorded in 5-10-see intervals during the session. Percent baseline freezing behavior was determined in the 2-minute habituation period. On day 3, animals were placed in context B, in which tactile and odor cues differed from context A. Following a 2 minute acclimation period animals received 4×30 sec presentations of the CS (tone) in the absence of the US (footshock), with a 45 sec interval between presentations. Freezing was recorded in 5-10-see intervals to measure baseline freezing response to the altered context, and freezing response to each tone cue presentation. […] On day 4 (Post-Extinction Testing in Drug-Free State), animals were placed in Context B. Following a 2 min acclimation period, animals received 4×30 sec extinction tone duration presentations of the CS (tone) in the absence of the US (footshock), with a 45 sec interval between presentations. Freezing was recorded in 5-10-see intervals to measure baseline freezing response to the altered context, and freezing response to each tone cue presentation.

For the molecule `CNC(C)C(=O)c1ccc2c(c1)OCO2` (centres unmarked) [methylone, 3,4-methylenedioxy-N-methylcathinone], the “decrease in CAPS-5 score” value in the data set on participants with PTSD (Day 3) is 8.4 points. For the same molecule, in the data set with participants with PTSD (Day 3), the “decrease in MADRS score” value was 8.2 points. Also, the “reduction in Anxiety Sub-Scale of MADRS” value in the data set on participants with PTSD (Day 3) was determined as 20%; with participants with PTSD (Day 10), 43%; in the data set on participants with PTSD (Day 17), 50%; in the data set with participants with PTSD (Day 24) it was 57%; in the data set on participants with PTSD (Day 29), 56%; with participants with PTSD (Day 36), 66%. Besides, the figures for the “reduction in Anxiety Sub-Scale of MADRS” value in the data set on participants with PTSD (Day 43) and with participants with PTSD (Day 64) were 64% and 66%, respectively. Moreover, the “SDS Family Life score, mean (SD)” value in the data set with participants with PTSD (Day 64) was 3.1 (3.45). Also, in the data set with participants with PTSD (Day 64), the “SDS Mean Overall score, mean (SD)” value is 3.1 (3.12). The “SDS Social Life score, mean (SD)” value in the data set with participants with PTSD (Day 64) is recorded as 3.2 (3.39). Moreover, in the data set on participants with PTSD (Day 64), the “SDS Work/School score, mean (SD)” value is 3.3 (3.78). Besides, the “PSQI total score change” value with participants with PTSD (end of study (6 weeks after the last dose)) is recorded as −4.0 points. Further, in the data set with participants with PTSD (human, in vivo, oral, 4 weeks), the “drug-related SAEs” value is recorded as “No drug-related SAEs occurred”. For the same molecule, the “fear extinction training on day 3” value with C57BL/6J mice (Example 35, all doses (10, 20, 30 mg/kg IP)) is recorded as “significantly improved fear extinction training”. For the same molecule, the “effect on fear extinction training and testing” value in the data set on C57BL/6J mice (Example 35, methylone 30 mg/kg IP 30 min before extinction training on day 3) is “rapid, robust and long-lasting beneficial effect”. Besides, the “enhancement of fear extinction recall vs saline” value in the data set on C57BL/6J mice (methylone 30 mg/kg IP 30 min before extinction training, day 3) was ~60%. Besides, the “locomotion during testing session” value in the data set on C57BL/6J mice (methylone 30 mg/kg IP, day 3) is “no differences between groups in locomotion”.
